Experimental data published in patent US12605480B2, “Tough gel-based drug delivery compositions and methods thereof” (priority 2019, dated 2026).
≈ marks a conversion by molar mass, not a printed value.

Legend:
[1] = cited from earlier work
[2] = Solubility of CORT in water and other solutions; format: physicochemical
Experimental: The solubility of CORT in various water and other solutions were evaluated over a period of 24 h.

[3] = rat, in vivo; cited from earlier work

CC1(C)O[C@@H]2C[C@H]3[C@@H]4CCC5=CC(=O)C=C[C@]5(C)[C@@]4(F)[C@@H](O)C[C@]3(C)[C@]2(C(=O)CO)O1 [Triamcinolone acetonide]
water solubility [1]: 0.02 mg/mL (≈ 46 µM)
solubility at 24 h ([2]; DMSO:ddH2O 1:4, aqueous with cosolvent or surfactant or cyclodextrin, DMSO:ddH2O ratio of 1:4): ~1000 µg/mL
solubility at 24 h ([2]; ddH2O and water-based solutions of 2% alginate and 12% acrylamide, 24 h): 10 to 100 µg/mL (≈ 23 to 230 µM)
solubility ([2]; water 37° C., input of the FE model, read-out: maximum solubility sol(water 37° C.) / Csol): 33 µg/mL (≈ 75.9 µM)
acute toxicity (oral LD50) [3]: 1451 mg/kg
